The values that follow come from publication PMC10342150, “Artesunate Dry Emulsion Formulation Combined with Antibiotics for Treatment of Helicobacter pylori Infections: In Vitro/In Vivo Evaluation” (International Journal of Molecular Sciences, 2023).

Data set [1] can be described thus: Solubility in simulated gastric fluid (SGF, pH 1.5). As to conditions: 0.5 g in 10 mL SGF pH 1.5, 36.5 °C, 30 min stirring. It counts as physicochemical. The method, then:
An amount of 0.5 g of native artesunate and ADEF was dispersed in 10 mL of simulated gastric fluid (SGF, pH 1.5). All solutions were incubated at 36.5 °C under mild shaking (100 rev/min) in a G24 Environmental Incubator Shaker (New Brunswick Scientific Co., Edison, NJ, USA) for 30 min.

The subject of data set [2] is Helicobacter pylori. The data set can be described thus: Agar disk diffusion assay. It counts as cell-based. As to conditions: paper disks, ~20 mg/mL. How it is done: Practically, impregnated paper disks with a determined concentration (~20 mg/mL) of ADEF were deposited on the surface of a standardized culture medium previously inoculated with a calibrated inoculum of a pure culture of H. pylori. After incubation, the Petri dishes were examined, and the diameters of the zones of inhibition surrounding the disks were measured. The obtained values were thereafter compared to the critical values of the different antimicrobial standards to determine the clinical categorization (resistant, intermediate, sensitive).
A general note: Agar diffusion results depend on both activity and mobility in agar.

On the set-up of data set [3]: method as in earlier work. As to conditions: artesunate in acidic form; cited from earlier work.
On the set-up of data set [4]: method as in PMID 17694524. To be noted: cited from earlier work.
Data set [5] can be described thus: in vivo. To be noted: male, Sprague-Dawley, rat, plasma, po, 150 mg/kg.
Procedure: (§1) The objective of this study was to investigate the pharmacokinetic (PK) profile of ADEF after a single oral (gavage) administration to rats at the following doses: • Low dose: 25 and 50 mg/kg of ADEF; • Mid dose: 100 mg/kg of ADEF; • High dose: 150 mg/kg of ADEF.
(§2) For comparative study, native artesunate was also included in this study, but only at a high dose of 150 mg/kg.
(§3) After a 1-week acclimation period, ADEF was administered orally to rats, and blood samples were collected at various time intervals (5, 10, 15, 30, 45, and 60 min) using K2EDTA tubes as anticoagulants. The collected tubes were then placed on wet ice. Subsequently, the samples were centrifuged at 1000× g for 10 min at 4 °C. The resulting plasma was recovered and stored frozen at temperatures below or equal to −60 °C for further analysis.
(§4) Non-compartmental analysis of the test item and its metabolite concentrations in plasma was performed by using the Phoenix® WinNonlin®6 6.4 software.
The nature of data set [6]: Pharmacokinetics after single oral (gavage) administration in rats. To be noted: different doses (up to 150 mg/kg).
Procedure: as §1, §2, §3, §4
Data set [7] has as its system H. pylori PremSS1. Kind of data set: In vivo efficacy against H. pylori in infected mice (bacterial culture and qPCR of stomach). Also noted: species or system C57BL/6 mice. To be noted: oral, single dose per day for 14 days; ADEF 40 mg/kg, amox 30 mg/kg, PPI 150 mg/kg; bacterial culture and qPCR (Figure 8A,B). An excerpt:
Animals: A mouse model of H.-pylori-induced disease using pre-murine Sydney strain-1 (PremSS1) in mice C57BL/6 was extensively used in Helicobacter research. The persistence of mouse colonization, distribution, and long-lasting infection is attributable to the strain’s capabilities. For these reasons mice C57BL/6 were selected in this study. In fact, male mice with «specific pathogen-free» status (CHU of Bordeaux, Amélie Raba-Léon place, Bordeaux Cedex) at 6 weeks of age were housed in an acclimatization room for 1 week before experimentation.
Mouse gavage with H. pylori: Mice were fasted the day before the gavage days. They were force-fed with approximately 10^8 H. pylori PremSS1 in 100 µL of phosphate-buffered saline in the morning and then placed in a cage for the rest of the day under normal conditions. The gavages were carried out on three consecutive days. A bacteria viability test was accomplished post-gavage by platting a bacterial pellet on «Poly-house-made» agar for 24 h. […]
Each quarter of the mouse stomach was placed in a tube that was RNASE and DNASE free, containing 200 μL of physiological water. […] The remaining 90 µL were extracted for H. pylori quantification using qPCR. […] All samples were prepared in duplicate, and the results were expressed as cfu/mg of stomach tissue. […]
Background: Real-time PCR tracks product formation cycle by cycle.

Molecules are shown by their SMILES.

In general, AUC(0-t) refers to exposure summed from dosing to a finite time, without extrapolation to infinity. The Cmax is the highest concentration seen after dosing. Broadly, the Tmax is the time at which the peak concentration occurs. In general, half-life refers to how long it takes for the measured level to halve. A low value points to fast loss. `C[C@H]1[C@H](OC(=O)CCC(=O)O)O[C@@H]2O[C@@]3(C)CC[C@H]4[C@H](C)CC[C@@H]1[C@@]24OO3` [Native Artesunate, artesunate]: the “Solubility in simulated gastric fluid” value in data set [1] is given as “did not dissolve”. The Inhibition zone entry in data set [2] was “two distinct zones were observed”. The Water solubility result in data set [3] is recorded as “about 0.68 % (w/w)”. Also, the “Stability in aqueous, acidic and basic media” value in data set [4] is listed as “unstable”. Moreover, in data set [5], the AUC(0-t) came out at 211 ng·h/mL, the Cmax amounted to 701 ng/mL, the Tmax is 15 min and the half-life was 18 min. Besides, the “Mortality or abnormal signs” value in data set [6] was “no mortality or abnormal signs”.

In the case of `COc1ccnc(C[S+]([O-])c2nc3ccc(OC(F)F)cc3[nH]2)c1OC` (centres unmarked) [PPI, pantoprazole], in data set [7], the “Effect against H. pylori in infected mice” value is reported as “did not exhibit a significant effect”.

Turning to `CC1(C)S[C@@H]2[C@H](NC(=O)[C@H](N)c3ccc(O)cc3)C(=O)N2[C@H]1C(=O)O` [amox, amoxicillin], the “Effect against H. pylori in infected mice” value in data set [7] is reported as “did not exhibit a significant effect”.
